Reference: a melting point compilation (Tetko et al.)

melting point | Structure (SMILES)
53 °C | CN(c1c(F)c(F)c(C#N)c(F)c1F)N(O)O
77.5 °C | CCN(CC)c1ccc([N+](=O)[O-])cc1
172 °C | Ic1cc(I)c(I)c(I)c1I
165 to 167 °C | Cc1nn(C)c2sc(C(=O)Cl)cc12
90 to 94 °C | COc1ccc([N+](=O)[O-])c(O)c1
53 to 55 °C | O=Cc1ccc(C(F)(F)F)nc1
54 to 56 °C | O=[N+]([O-])c1cc(C(F)(F)F)ccc1N1CCCC1
116 to 118 °C | Cc1nc(-c2cccc(S(=O)(=O)Cl)c2)cs1
94 to 95 °C | Cc1cccnc1C(N)=NO
95 °C | COC(=O)C1(S(=O)(=O)c2ccc(Br)cc2)CCC1
152 to 156 °C | Nc1nc(-c2ccccc2)ns1
96 to 97 °C | COC(=O)c1cnc(SC)nc1
80 to 82 °C | Cn1nc(C(=O)Cl)cc1-c1ccccc1
202 to 203 °C | CCOC(=O)c1cc2c(=O)oc3ccccc3c2n(C)c1=O
122 °C | CC(=O)Nc1ccc(F)cc1F
118 °C | CCCCNc1cc(=O)oc2ccccc12
242 °C | CC1CC2C3CC(F)C4=CC(=O)C=CC4(C)C3(F)C(O)CC2(C)C1C(=O)CO (stereo unspecified)
< 20 °C | Brc1cccc(Oc2ccc(Br)cc2Br)c1
46 °C | COc1ccc2c(c1)N(CCCN(C)C)c1ccccc1S2
250 °C | O=C(O)c1cc(-c2ccccc2)n[nH]1
83 °C | Cc1cc([N+](=O)[O-])ccc1N=C=O
81 °C | CC(C)(C)c1ccc2c(c1)-c1cc(C(C)(C)C)ccc1C2

melting point | Structure (SMILES)
56.5 °C | COC(=O)C1(S(=O)(=O)c2ccccc2)CCCC1
130 °C | CC(=O)Oc1c(-c2ccccn2)[nH]c2ccccc12
-86 °C | COC(=O)C(F)(F)C(F)(F)C(F)(F)F
110 to 112 °C | Nc1cc(F)c(Cl)cc1N
35 °C | COc1c(F)cc(F)cc1C#N
37 °C | Cc1c(F)ccc(C(=O)Cl)c1F
391 to 394 °C | O=C1c2cc3ccccc3cc2C(=O)c2cc3ccccc3cc21
104 to 107 °C | CNc1cc(Cl)ccc1[N+](=O)[O-]
91.5 °C | COc1cc(C(=O)c2ccc(Cl)cc2)cc(OC)c1OCCN1CCOCC1
137 to 142 °C | CS(=O)(=O)c1ccc(C#N)cc1
159 °C | O=c1[nH]c2ccccc2nc(C(F)(F)F)c1=NNc1cc(-c2ccccc2)n[nH]1
153 °C | CC(C)OC(=O)NC(C(=O)NC(C)c1nc2ccc(F)cc2s1)C(C)C (stereo unspecified)
52 °C | COC(=O)c1ccccc1C(=O)c1ccccc1
146 to 148 °C | Cc1cc(C(=O)O)oc1C
210 °C | N#CC1=C(N)Oc2c(c(C(F)(F)F)nn2-c2ccccc2)C1c1ccc(Cl)cc1Cl (stereo unspecified)
290 °C | Cn1c(=O)c(C2=NNC(=O)C2=CNc2ccc(Cl)cc2)c(O)c2ccccc21
161 °C | O=C(O)C#Cc1cc(Br)cc(/C=C/C(=O)O)c1
113 °C | COC(=O)c1ccc(N)c(Cl)c1
-20.6 °C | CCc1ccc(C(C)=O)cc1
102 °C | O=C(C(=O)c1cccc2ccccc12)c1ccccc1
97.5 °C | CN(C)CCC=C1c2ccccc2Sc2ccc(Cl)cc21
59 °C | COC(=O)c1cc(Cl)cc(Cl)c1

melting point | Structure (SMILES)
254 °C | CC(=O)Nc1cccc(N=[N+]([O-])c2cccc(NC(C)=O)c2)c1
70 °C | N#Cc1ccc(Br)cc1Cl
220 °C | COc1ccc(C(=O)O)cc1Br
156 to 158 °C | CSc1nc(N)ns1
76 °C | COc1ccc(COC(=O)NN)cc1
250 to 251 °C | Cc1cc2ncc(C(=O)O)c(C)n2n1
190 °C | CC1OC(n2cc(F)c(=O)[nH]c2=O)C(O)C1O (stereo unspecified)
153 to 155 °C | CCOC(=O)Cc1nc(O)cs1
135 to 136 °C | CC(=O)N1C(=O)N2CCc3ccccc3C2(c2ccc(Cl)cc2)C1=O (stereo unspecified)
170 °C | CS(=O)(=O)c1ccc2c(c1)N(CCCN1CCC(C(N)=O)CC1)c1ccccc1S2
258 °C | c1ccc2c(c1)ccc1c3ccccc3ccc21
137 to 138 °C | CCOC(=O)c1cc(-c2ccco2)[nH]n1
93 °C | Cc1cc(C)cc(S(=O)(=O)Cl)c1
104 to 106 °C | Cc1ccccc1CCC(=O)O
121 to 124 °C | CCOC=C(C#N)S(=O)(=O)c1ccc(Cl)cc1
129 °C | COc1ccc(C=CC(=O)C=Cc2ccc(OC)cc2)cc1
250 °C | CC(=O)Nc1ccc(-c2csc(N)n2)cc1
40 to 41 °C | O=Cc1ccc(-c2ccco2)s1
171 to 173 °C | Brc1cc(Br)c(Oc2c(Br)cc(Br)c(Br)c2Br)cc1Br
105 °C | N#C/C(=C\c1ccccc1)c1nc2ccccc2s1
66 °C | Nc1ccc(Cl)cc1Br
202 to 204 °C | Nc1nnc(-c2ccc([N+](=O)[O-])cc2)s1

Continued, compound first:

Structure (SMILES) | melting point
CC(=O)Oc1ccc(C(C)(C)c2ccc(OC(C)=O)cc2)cc1 | 86 to 91 °C
CC(C)CC#N | -101 °C
NC(=S)C(c1ccccc1)c1ccccc1 | 143 to 146 °C
CCCCCCCCCCCCCCCCCC#N | 41 °C
Cc1cncc(N2CCC(C(=O)O)CC2)n1 | 151 to 152 °C
COc1ccc(F)c(CBr)c1F | 55 °C
CC(=NNC(N)=O)c1ccncc1 | 218 °C
CCCC1CC(C(=O)NC(C(C)Cl)C2OC(SC)C(O)C(O)C2O)N(C)C1 (stereo unspecified) | 141 °C
NCC(c1ccccc1)c1ccccc1 | 43 to 49 °C
CCOC(=O)C(=O)C=CN(C)C | 38 °C
CCCCCC(C)(C)C | -113 °C
O=Cc1ccc(N2CCOCC2)s1 | 126 to 128 °C
CC(CC(N)=O)n1nc2ccccc2n1 (stereo unspecified) | 152 °C
CC(C)(C)OC(=O)NC(COC1CCCCO1)CS(=O)(=O)c1ccccc1 (stereo unspecified) | 100 to 104 °C
OCCc1ccccc1 | -27 °C
c1ccc2c(c1)ccc1c2ccc2c3ccccc3ccc21 | 368 °C
CC(=O)O[Si](OC(C)=O)(OC(C)(C)C)OC(C)(C)C | -4 °C
CCC1(CC2(c3cccc(Cl)c3)CO2)C(=O)c2ccccc2C1=O (stereo unspecified) | 61 °C
CC(=O)OC1C2COC(O2)C(OC(C)=O)C1OC(C)=O (stereo unspecified) | 110 °C
O=C(O)[C@@H]1CCCC[C@H]1C(=O)O (relative stereo) | 220 °C

Structure (SMILES) | melting point
O=C(Br)c1ccccc1 | -24 °C
O=C1OC(c2ccc(OP(=O)(O)O)cc2)(c2ccc(OP(=O)(O)O)cc2)c2ccccc21 | 198 °C
O=C(Nc1ccccc1NC(=O)c1ccccc1)c1ccccc1 | 301 to 302 °C
O=C(CC(=O)c1ccccc1)c1ccccc1 | 78 °C
CC(=O)C1CCC2C3CC=C4CC(O)CCC4(C)C3CCC12C (stereo unspecified) | 193 °C
O=C(O)C(F)(F)C(F)(F)C(F)(F)C(F)(F)C(F)(F)C(F)(F)C(F)(F)C(F)F | 67 °C
CCOP(=S)(OCC)Oc1nc(Cl)n(C(C)C)n1 | < 25 °C
CC(C=CC=C(C)C=CC1=C(C)C(=O)C(O)CC1(C)C)=CC=CC=C(C)C=CC=C(C)C=CC1=C(C)C(=O)C(O)CC1(C)C (stereo unspecified) | 182 °C
CC(=O)SCC(Cc1ccccc1)C(=O)NCC(=O)OCc1ccccc1 (stereo unspecified) | 89 °C
Cc1cccc2cccc(C)c12 | 65 °C
O=C(O)CCc1ccc(C(=O)O)cc1 | 290 °C
O=C(N=NC(=O)OCc1ccccc1)OCc1ccccc1 | 44 to 52 °C
C=C1C(=O)C23C(OC(C)=O)CC4C5(C)CCCC4(C(O)OC5)C2C(OC(C)=O)CC1C3OC(C)=O (stereo unspecified) | 226 °C
CN1CCN(c2ccccc2C(=O)O)CC1 | 67 to 72 °C
O=CNC1CC=CCC(NC=O)CC=CC1 (stereo unspecified) | 289 to 290 °C
C=CC1(OC(C)=O)CCC2(C)C(CCC3C2CCC2(C)C3CCC23OCCO3)C1 (stereo unspecified) | 101 to 109 °C
BrCc1cccc2cccnc12 | 81 to 82 °C
CC(=O)OCC1OC(C(N)=O)C(OC(C)=O)C(OC(C)=O)C1OC(C)=O (stereo unspecified) | 127 to 130 °C
O=C(NC(Cc1cccs1)C(=O)O)OCC1c2ccccc2-c2ccccc21 (stereo unspecified) | 169 °C
O=C1CCC(C(=O)O)=NN1 | 199 to 200 °C

Structure (SMILES) | melting point
CC12CCC3C(CCC4(C)CC(=O)CCC34C)C1CCC2=O (stereo unspecified) | 148 °C
CC1OC(OC2C=C3CCC4C(CCC5(C)C(c6ccc(=O)oc6)CCC45O)C3(C)CC2)C(O)C(O)C1O (stereo unspecified) | 221 °C
COC(=O)C(=O)CC(C)=O | 63 to 64 °C
O=S1OCC2C(CO1)C1(Cl)C(Cl)=C(Cl)C2(Cl)C1(Cl)Cl (stereo unspecified) | 109 °C
Nc1nc(N)sc(=S)n1 | 360 °C
OCC1CCCCN1 (stereo unspecified) | 69 °C
CCCCCCOCCCCCC | -43 °C
Nc1cccc(Cn2ccnc2)c1 | 72 to 74 °C
O=C(O)Cc1cccc(CC(=O)O)c1 | 175 °C
OC(c1ccccc1)(c1ccccc1)[C@@H](c1ccccc1)N1CCCCC1 | 158 °C
FC(F)(Cl)C(Cl)(Cl)C(F)(F)Cl | -42.9 °C
O=C1CCC(F)(F)CC1 | 39 °C
O=C(C1=NOC2C(=O)N(c3ccc(Cl)cc3)C(=O)C12)c1ccco1 (stereo unspecified) | 171 °C
CCCCCCCC(=O)OC | -40 °C
O=C(O)c1nn(Cc2ccc(Cl)cc2Cl)c2ccccc12 | 207 °C
CC(=NC#N)N(C)Cc1ccc(Cl)nc1 | 98.9 °C
FC(F)C(F)(F)F | -103 °C
C=C1C(=O)C23C(OC)CC4C5(C)CCCC4(COC5)C2C(OC(C)=O)CC1C3OC(C)=O (stereo unspecified) | 160 °C
CCC(C)C(=O)OC1CCC=C2C=CC(C)C(CCC3CC(O)CC(=O)O3)C21 (stereo unspecified) | 152 °C
CC1=CCC2C(C)(C)CCCC2(C)C12CCC(C)(CC(=O)O)O2 (stereo unspecified) | 100 °C
